Assay results published in paper PMC12188386, “Selective CBP/EP300 Bromodomain Inhibitors: Novel Epigenetic Tools to Counter TNF-α-Driven Inflammation” (JACS Au, 2025).

Columns and labels:
[1] = target: T1, CBP-BRD (ePL-CBP-BRD in HEK293T cells) (Homo sapiens, UniProt Q92793); experiment: CBP-BRD InCELL Pulse cellular target engagement; assay type: cell-based; conditions: 1 h compound treatment of HEK293T cells transiently transfected with ePL-CBP-BRD
T1 construct: (residues 1083-1197) was cloned into the pICP-ePL-C vector; expressed in transfected cells; host or cells: HEK293T, transient transfection (vector pICP-ePL-C, DiscoverX 94-4007S)
T1 sequence (Q92793 1083-1197): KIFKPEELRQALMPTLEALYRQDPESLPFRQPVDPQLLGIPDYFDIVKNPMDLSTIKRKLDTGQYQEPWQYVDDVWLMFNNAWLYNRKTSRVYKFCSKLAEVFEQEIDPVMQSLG
Description: The CBP-BRD (residues 1083-1197) was cloned into the pICP-ePL-C vector (DiscoverX, 94-4007S) between the EcoRI and XhoI restriction sites using the hexahistidine-CREBBP plasmid as a template. 5x10^5 HEK293T cells were plated on a 6 well plate the day prior to transfection with 1.5 μg ePL-CBP-BRD plasmid using 5 μl FugeneHD (Promega E2311) in 500 μl optiMEM® (Gibco, 31985062) . Proteins were allowed to express for 20 h before cells were trypsinized, washed and resuspended in low -serum medium (DMEM with 5 % FBS). Compounds were serially diluted in DMSO at 100x, pre-diluted to 5x in complete medium (DMEM with 10 % FBS and 1 % P/S), then added to a suspension of 5x10^3 cells, giving a final DMSO concentration of 1 %. Treated cells were incubated for 1 h at 37 °C in an incubator, followed by a heat shock for 3 min at 45 °C and recovery for 3 min at 22 °C using a thermocycler with a ramp rate of 1 °C/s (SimpliAmp, Thermo Fisher). Stab ilized ePL tag was quantified using the InCELL detecti n Kit isc verX as per the manufacturer’s pr t c usin the -10 working detection solution and a 2 h incubation before reading luminescence with a SpectraMax M5 plate reader (Molecular devices). […]

[2] = bidirectional Caco-2 permeability assay; assay type: in vitro ADME; conditions: human; for Papp A→B at 120 min / Papp B→A at 120 min / efflux ratio at 120 min: Caco-2; for Papp A→B at 120 min: Direction: A-B (apical-to-basolateral); for Papp A→B at 120 min / Papp B→A at 120 min: n=2; for Papp B→A at 120 min: Direction: B-A (basolateral-to-apical); for efflux ratio at 120 min: from mean A-B and B-A data, read-out: Efflux Ratio (Papp(B-A)/Papp(A-B))
Description: (§1) Bidirectional Caco-2 Permeability Assay (provided by Cyprotex Discovery Ltd; Cheshire, UK)19 Following a standard Cyprotex procedure, Caco-2 cells (ATCC), used at passages 40–60, were seeded nt ranswe inserts at a densit f × ⁵ ce s/cm² and maintained in with media changes carried out every 2–3 days. Permeability assays were performed between days 18–22 post-seedin . pr cedures were c nducted at ° in a humidified incu at r with O₂. On the day of the assay, monolayers were prepared by rinsing both the apical and basolateral compartments with pre-warmed anks’ a anced a t uti n at the desired pH and incubated with HBSS on both sides for 30 minutes to equilibrate the compartments. The dosing solutions were obtained by diluting the test compounds in assay uffer t a c ncentrati n f with a fina O c ncentrati n f ≤ v/v and Lucifer yellow was included as a fluorescent marker to assess monolayer integrity. Analytical standards were prepared similarly, omitting the Lucifer yellow . For apical-to-basolateral (A– B) measurements, the dosing solution was applied to the apical chamber and buffer to the basolateral side, while the configuration was reversed for basolateral-to-apical (B–A) measurements. After a 120 min incubation, samples from both compartments were collected and diluted for quantification. Permeability was assessed in duplicates, and reference […]
(§2) compounds with known characteristics were included as controls. Quantification of test and control compounds was performed by LC-MS/MS using an 8-point calibration curve under Cyprotex standard analytical conditions. The initial concentration (C0) at time zero was determined from the dosing solution, and recovery was calculated based on concentrations […]
(§3) The apparent permeability coefficient (Papp) is calculated from the equation (where dQ/dt is the drug permeation rate across the cells, C0 is the concentration in the donor compartment at time zero, and A is the area of the cell monolayer):
(§4) Efflux ratio (ER) is calculated from mean A-B and B-A data: […]
(§5) Cells were fixed in situ with cold TCA: untreated cells at the time of compound addition (Tz) and treated cells 48 h after addition of compound (Ti). Cells were washed, then su f rh damine s uti n μ at . w/v in acetic acid was added to each well and incubated for 10 minutes at room temperature. After washing again, the plates were air dried and bound stain solubilized with 10 mM Trizma base before absorbance was […]
(§6) Percentage growth (%Growth) was calculated as follows:
(§7) when Ti ≥ Tz, %Growth = Ti − Tz x 100 where Ti = absorbance from compound treated cells, Tz = absorbance from untreated cells at time zero, and C = absorbance from control (DMSO) treated cells.
(§8) HEK293T, MRC5 and LP1 cells were cultured in DMEM (Gibco 41966 -029) containing 10 % or 15 % (LP1) FBS (Gibco 10270106 or Sigma F9665), 1 % non-essential amino acids (MRC5 only, […]
(§9) cultured in RPMI 1640 (Gibco 21875-034) containing 10 % FBS and 1 % P/S. All cells were grown in a humidified incubator with 5 % CO 2 at 37 °C.

Caco-2 cells = experiment: bidirectional Caco-2 permeability assay; assay type: in vitro ADME; conditions: for Papp Replicate 1 / Papp Replicate 2: 120 min; for membrane permeability (Caco-2), in words: bidirectional Caco-2 assay
Description: as §1, §2, §3, §4, §5, §6, §7, §8, §9

[3] = Caco-2, Direction: A-B (apical-to-basolateral)
[4] = Caco-2, Direction: B-A (basolateral-to-apical)
[5] = Direction: A-B (apical-to-basolateral)
[6] = Direction: B-A (basolateral-to-apical)

| SMILES | cellular binding to CBP-BRD (InCELL Pulse) [1] | recovery at 120 min [2, 3] [%] | recovery at 120 min [2, 4] [%] | Papp A→B at 120 min [2] [×10⁻⁶ cm/s] | Papp B→A at 120 min [2] [×10⁻⁶ cm/s] | efflux ratio at 120 min [2] | Papp Replicate 1 (Caco-2 cells; [5]) | Papp Replicate 2 (Caco-2 cells; [5]) | Papp Replicate 1 (Caco-2 cells; [6]) | Papp Replicate 2 (Caco-2 cells; [6]) | membrane permeability (Caco-2), in words (Caco-2 cells) |
| --- | --- | --- | --- | --- | --- | --- | --- | --- | --- | --- | --- |
| CC(=O)Nc1cc(NC(=O)c2ccco2)cc(C(=O)Nc2cccc3nnc(C)cc23)c1 [Compound 1] | no ligand engagement in cellulo | 80 | 87.3 | 0.0375 | 11.5 | 307 | 0.0348 10-6 cms-1 | 0.0401 10-6 cms-1 | 11.6 10-6 cms-1 | 11.5 10-6 cms-1 | very low membrane permeability |
| Cc1cc2c(NC(=O)c3cc(NC(=O)c4ccco4)cc(-c4ccn(C)n4)c3)cccc2nn1 [Compound 2] | significant improvement in terms of cellular target engagement | 47 | 61.8 | 0.549 | 29 | 52.9 | 0.565 10-6 cms-1 | 0.533 10-6 cms-1 | 28.9 10-6 cms-1 | 29.2 10-6 cms-1 | improved cellular permeability |
| Cc1cc2c(NC(=O)c3cc(NC(=O)[C@H]4CCCO4)cc(-c4ccn(C)n4)c3)cccc2nn1 [Compound 5] | able to engage the target very similarly | 68.2 | 78 | 0.623 | 32.5 | 52.2 | 0.57 10-6 cms-1 | 0.677 10-6 cms-1 | 34.2 10-6 cms-1 | 30.9 10-6 cms-1 | improved cellular permeability |
